Patent publication US20160256515A1, “COMPOSITIONS AND METHODS FOR PREDICTION AND TREATMENT OF HUMAN CYTOMEGALOVIRUS INFECTIONS” (THE JOHNS HOPKINS UNIVERSITY, priority 2013, published 2016)
Read-outs that look alike come from different tables or passages of the source.

How the values were obtained:
NOD2 mRNA = type: cell-based, human; details: non-infected HFFs, MDP 10 μg/ml
human CMV (HCMV) = assay: CMV plaque numbers in human fibroblasts after pre-treatment; type: cell-based, human cytomegalovirus; details: pre-treatment of human fibroblasts followed by CMV infection
IFN-β = IFN-β response (qPCR, ELISA) after pretreatment and CMV infection; type: cell-based, human
From the text: RNA isolation and real time quantitative reverse transcriptase (qRT) PCR: Total RNA was isolated from cultured cells using RNeasy Mini kit (Qiagen, Georgetown, Md.) according to manufacturer's instructions. RevertAid first strand cDNA synthesis kit (Fermentas life sciences, Cromwell Park, Md.) was used to synthesize first strand cDNA from total RNA using oligo-dT primers. Negative reverse-transcriptase (−RT) reactions were included to ensure the specificity of qRT-PCR reactions. Synthesis of first strand cDNA from mRNA template was carried out at 42° C. for 1 h. Quantitative RT-PCR (qRT-PCR) was performed using specific primers and SYBER green (Fermentas life science) with two-step cycling protocol (95° C. for 15 s, 60° C. for 1 min). Reactions were performed in triplicates and GAPDH was used as internal control. mRNA levels in HCMV-infected cells were normalized to the mRNA produced in non-infected HFFs in addition to the internal normalization of each sample to GAPDH. The primers and gene targets appear in Table 1.
ELISA: Human interferon β (IFN-β) specific ELISA kit (PBL Interferon Source) was used to measure levels of secreted IFN-β from HFF-control and HFF-NOD2 overexpressing cells according to manufacturer's instructions.

Structure (SMILES)	induction of NOD2 expression (NOD2 mRNA; 12 h)	induction of NOD2 expression (NOD2 mRNA; 72 h)	plaque numbers (human CMV (HCMV))	interferon response (IFN-β) (IFN-β; pretreatment)	mRNA and protein expression of IFN-β (IFN-β; pretreatment followed by CMV infection, qPCR and ELISA)	IFN-β responses in NOD2 KD cells (IFN-β; treatment in NOD2 KD cells)
CC(=O)N[C@H]1C(O)O[C@H](CO)[C@@H](O)[C@@H]1O[C@H](C)C(=O)N[C@@H](C)C(=O)N[C@H](CCC(=O)O)C(N)=O (mixture of isomers) [MDP, muramyl dipeptide]	two fold	1400 fold				
C[C@H](N)C(=O)N[C@H](CCC(=O)NC(CCCC(N)C(=O)O)C(=O)O)C(=O)O (stereo partly drawn) [tri-DAP, L-Ala-γ-D-Glu-mDAP]			significant reduction	enhanced	increased	can initiate independent IFN-β responses
